# Entries after “also recorded” stand apart in the source; their conditions may differ.
# Columns and labels:
# [1] = system: refractory B-ALL PDX (LAX2); assay: In vivo treatment of NSG mice bearing refractory B-ALL patient-derived xenografts
# Description: Patient derived BCR-ABL1 ALL were labeled with firefly luciferase and selected by 25 μg ml^−1 blasticidin. 1 million PDX cells pre-treated with LY2090314 (10 μg ml^−1) or vehicle control for four hours. Cells were washed twice and then injected via the tail vein into sublethally irradiated (190 cGy) NSG mice (8-12 week-old, female). LY2090314 or vehicle control (dissolved in 5% DMSO, 45% PEG300 and PBS) were administered intraperitoneally at dose of 12.5 mg kg^−1 body weight twice every day for 20 times. The in vivo expansion and leukemia burden were monitored by luciferase bioimaging (Lago X; Accela). Briefly, D-luciferin (Promega) was dissolved in PBS and injected intraperitoneally at a dose of 2.5 mg per mouse 15 min before measuring luminescent. All mice were anesthetized by 5% isoflurane and continued during detection of light emission with 2% isoflurane introduced through a nose cone. When the mice get the signs of leukemia (hunched back, weight loss and inability to move), they were euthanized. Bone marrow and spleen were collected and flow cytometry analysis was performed to check leukemia engraftment.
# (§1) Data are shown as mean±s.d. unless stated. Statistical analysis was performed by GraphPad Prism 7 (GraphPad Software Inc.) using unpaired two-tailed t test or log-rank test as indicated in figure legends. Significance was considered at P<0.05. Kaplan-Meier survival analysis was used to estimate OS with GraphPad Prism 7. The investigators were not blinded to allocation during experiments and outcome assessment. Experiments were repeated to ensure reproducibility of the observations.
# autoreactive B-cells = assay: Genetic mouse models for SLE and RA treated with GSK3β inhibitor; type: in vivo; details: 4 injections i.p., 20 mg/kg, once full-blown disease has developed
# Description: β-catenin activation in mouse models for SLE. As mouse models for SLE, lupus-prone B6.Sle1.Yaa mice will be studied, to be crossed on the B6Mb1^+/Crex Ctnnb1^ex3fl/fl model for B-cell-specific accumulation of β-catenin (FIG. 25). B6.Sle1.Yaa mice only require one backcross then intercross for Sle1 homozygosity, a large locus on chromosome 1 that promotes lupus susceptibility. One caveat of the B6.Sle1.Yaa model is that these are male mice, by contrast to female-dominant lupus in patients, since disease penetrance requires a second copy of Tlr7 on the Y chromosome (the Yaa allele). The B6.Sle1.Yaa faithfully replicates these outcomes as observed in other lupus-prone strains, including female predominant strains such as NZB/WF1 and MRL/1pr, or single gene models.
# β-catenin activation in mouse models for RA. For collagen-induced arthritis (CIA) as a model for RA, disease is modeled on a B6 background with the B6 Mbl^+/Cre×Ctnnb1^ex3fl/fl allele using chicken type II collagen as an immunogen. […] Both models of inflammatory synovitis have been established, CIA induced in DBA1 and B6. The colonies are readily available for analyzing outcomes in these animals, including detailed analysis of B- and T-cell responses, and degree of synovitis and joint damage. […]
# β-catenin = assay: Western blot of colonies from MDS-derived CD34+ GFP+ progenitor cells; type: cell-based, human; details: large colonies after 12 days
# Description: (§2) Cells were washed twice with ice-cold PBS and were lysed in CelLytic buffer (Sigma-Aldrich) supplemented with 1% protease inhibitor cocktail (Roche Diagnostics), 1% phosphatase inhibitor cocktail (EMD Millipore) and 1 mM PMSF (CST) on ice. 10-20 μg of cell lysates were separated on precast gels (Bio-Rad) and transferred on nitrocellulose membranes (Bio-Rad). After blocking for an hour in TBS-T with 2% BSA, membranes were probed with the appropriate primary antibodies listed in Table 6. Membranes were incubated with alkaline-phosphatase conjugated secondary antibodies (Invitrogen) and analyzed with Chemi Doc™ MP Imaging System (Bio-Rad). For fractionation experiment Nuclear and Cytoplasmic Extraction Reagent (Thermo Scientific) was used according to manufacturer's instructions.
# For colony forming assays, 10,000 mouse BCR-ABL1 or NRAS^G12D were grown on MethoCult medium (M3231 or M3630 (with IL-7) respectively, StemCell Technologies) in 3-cm diameter dishes with an extra dish filled with water to prevent evaporation. […] For all colony forming experiments, colonies were imaged and counted using GelCount (Oxford Optronix) and 7-14 days after plating.
# Non-targeted and targeted CD34^+ GFP^+ cells were stimulated in the presence of human cytokines and colony forming assays were performed. Large colonies were analyzed by Western blot after 12 days.
# [2] = cited from earlier work
# [3] = system: B-lymphoid leukemia and lymphoma cells; assay: Cell viability assay (Cell Titer Glo 2.0) with GSK3β inhibitors; type: cell-based, human
# Description: Forty thousand patient-derived pre-B ALL cells or twenty thousand leukemia/lymphoma cell lines or ten thousand colon/lung cancer cells were seed in a volume of 80 μl in complete growth medium on 96-well plate. GSK3β3 inhibitors were added at the indicated concentration in a total volume of 100 μl. After treatment for 3 days, Cell Titer Glo 2.0 assays (Promega) were performed according to the manufacturer's instructions. Relative viability was calculated by measuring the luminescence value and normalizing it to baseline values of untreated cells.
# as §1
# [4] = system: β-catenin and MYC protein levels in B-ALL cells; assay: Western blot of β-catenin and MYC after GSK3β inhibitor treatment; type: cell-based, human
# Description: as §2
# [5] = system: B-lymphoid leukemia and lymphoma cells; assay: Cell viability assay (Cell Titer Glo 2.0) with GSK3β inhibitors; type: cell-based, human; remark: listed apart in the source
smiles,measurement,setting,value
O=C1NC(=O)C(c2cnc3ccccn23)=C1c1cn2c3c(cc(F)cc13)CN(C(=O)N1CCCCC1)CC2 [LY2090314],leukemia burden (bioluminescence imaging),"[1]; NSG mice with refractory B-ALL PDX, intraperitoneal, single agent vs vehicle",substantially reduced leukemia burden
same,overall survival,"[1]; NSG mice with refractory B-ALL PDX, intraperitoneal, P=6.5E-05, n=9",significantly extended overall survival
same,leukemia-initiation potential,"[1]; limiting doses (100-2,500 cells) of B-ALL PDX in transplant recipient mice",reduced the leukemia-initiation potential
same,weight loss / dose-limiting toxicity,[1]; treated NSG mice,did not show significant weight loss or other dose-limiting toxicity
same,disease outcome in established SLE and RA,autoreactive B-cells,induce disease remission
same,β-catenin accumulation in non-targeted control colonies,β-catenin,induced accumulation of β-catenin in all 7 non-targeted control colonies
same,adverse effects in clinical trials,[2]; Cmax micromolar,lymphopenia
same,Outcome: clinical responses,[2]; Phase 1 and 2,No clinical responses
same,Outcome: safety,[2]; Phase 1 and 2,"Phase 1 and 2, favorable safety"
same,Outcome: MTD,[2]; i.v.,80 mg
same,safety and tolerability / PK/PD profile in clinical trials,[2]; micromolar plasma concentrations (Cmax),demonstrated safety and tolerability at micromolar plasma concentrations
same,responses in B-ALL PDX with vs without IKZF1-deletion,"[3]; 10 patient-derived xenografts, 5 with IKZF1-deletion",no significant differences
same,drug-responses in a larger panel of cell lines and PDX,"[3]; B-ALL, B-cell lymphoma, myeloid leukemia, colon, lung cancer, 0 up to 200 nM, 3 days",profound responses in B-ALL and B-cell lymphoma cells in the absence of significant effects on myeloid and epithelial tumor cells
same,selective cell death / drug response,"[3]; B-lymphoid vs myeloid and epithelial cells (PDX2, BV173, LAX2 vs THP1, SW620, H82), 3 days",induced cell death at low nanomolar concentrations selectively in B-lymphoid but not myeloid and epithelial cells; also recorded: B-cell selective activity at low nanomolar concentrations
same,responses in B-ALL PDX from chemotherapy-sensitive vs refractory/relapsed patients,[3]; FIG. 7D,did not affect responses
same,sensitivity of B-ALL cells with deletion of CTNNB1,"[3]; human B-ALL (BV173) gCTNNB1 vs gNT clones, 3 days",near-complete resistance
same,β-catenin accumulation and MYC suppression,"[4]; B-ALL (PDX2) cells, 16 hours, FIGS. 7A, 7C, 18C",induced massive accumulation of β-catenin in parallel with acute suppression of MYC
same,MYC suppression in B-ALL cells with deletion of CTNNB1,"[4]; BV173, 20 nM, 16 hours",prevented suppression of MYC
same,β-catenin accumulation and MYC suppression in B-cell vs colon and lung cell lines,"[4]; pre-B cell and mature B-cell lines, colon and lung cancer cell lines, FIG. 28A",induced rapid accumulation of β-catenin protein and suppression of MYC in Ikaros-expressing B-cell lines but not colon and lung cell lines
same,IC50 in epithelial and myeloid cancer cells relative to B-ALL,[5]; 343 epithelial cancer cell lines (Prism Drug Repurposing Secondary Screen) vs B-ALL cell lines,236 fold
same,IC50 in epithelial and myeloid cancer cells relative to B-cell lymphoma,[5]; 343 epithelial cancer cell lines (Prism Drug Repurposing Secondary Screen) vs B-cell lymphoma cell lines,92 fold
